Key:
[1] = solution in water containing 0.1 g per 1 ml
[2] = dissolving rate; assay type: physicochemical
[3] = stability, expiry date; assay type: physicochemical; settings: identified by State Food and Drug Administration
[4] = system: streptococcus haemolytica; settings: cited from earlier work
[5] = system: shigella; settings: cited from earlier work
[6] = system: Gram-positive coccus; settings: except enterococcus, methicillin-resistant staphylococcus; cited from earlier work
[7] = system: listeria; settings: cited from earlier work
[8] = system: Streptococcus pneumoniae; settings: cited from earlier work
[9] = system: Haemophilus influenzae; settings: cited from earlier work
[10] = system: Typhoid bacillus; settings: cited from earlier work
[11] = system: actistaphylococcus; settings: cited from earlier work
[12] = system: bacillus anthracis; settings: cited from earlier work
[13] = system: Corynebacterium diphtheriae; settings: cited from earlier work
[14] = system: neisseria; settings: cited from earlier work
[15] = system: acinetobacter; settings: cited from earlier work
[16] = system: proteus mirabilis; settings: cited from earlier work
[17] = system: partial E.coli; settings: cited from earlier work
[18] = system: klebsiella pneumoniae; settings: cited from earlier work
[19] = system: PPNG (Penicillinase-Producing Neisseria gonorrheae); settings: cited from earlier work
[20] = system: other enterobacteriaceae; settings: cited from earlier work
[21] = system: P. aeruginosa; settings: cited from earlier work

SMILES: Cc1nnc(SCC2=C(C(=O)[O-])N3C(=O)[C@@H](NC(=O)Cn4cnnn4)[C@H]3SC2)s1.O.O.O.O.O.[Na+] [cefazolin sodium pentahydrate]
- pH value [1]: 4.8-6.3
- dissolving rate [2]: rapid dissolving rate
- expiry date [3]: 24 months

SMILES: Cc1nnc(SCC2=C(C(=O)O)N3C(=O)[C@@H](NC(=O)Cn4cnnn4)[C@H]3SC2)s1 [Cefazolin sodium]
- sensitivity [4]: highly sensitive
- sensitivity [5]: sensitive
- antibacterial activity [6]: excellent antibacterial activity
- sensitivity [7]: very sensitive
- sensitivity [8]: highly sensitive
- sensitivity [9]: intermediate sensitivity
- sensitivity [10]: sensitive
- antibacterial activity [11]: low antibacterial activity
- sensitivity [12]: very sensitive
- sensitivity [13]: very sensitive
- sensitivity [14]: sensitive
- sensitivity [15]: resistant
- antibacterial activity [16]: good antibacterial activity
- antibacterial activity [17]: good antibacterial activity
- antibacterial activity [18]: good antibacterial activity
- sensitivity [19]: resistant
- sensitivity [20]: resistant
- sensitivity [21]: resistant

Reference: US20090299056A1 (priority 2005, published 2009)
